Article PMC6290777, “Inhalation of the prodrug PI3K inhibitor CL27c improves lung function in asthma and fibrosis” (Nature Communications, 2018)
“And” between values parts separate entries of the source, which are not always exact repeats. Equal values may be shown once.

Experiments:
[1] = Glycemia and insulin challenge after inhaled CL27c; format: in vivo, mice; conditions: N.S. vs vehicle
Description: To define whether this prodrug was suitable for inhaled administration, CL27c was studied to evaluate selected ADME (absorption, distribution, metabolism, and excretion) and pharmacokinetic properties. First, stability of CL27c and CL27e was analyzed in mouse plasma (Supplementary Table 1) and in mouse, rat, and human liver microsomes in the presence of nicotinamide adenine dinucleotide phosphate (NADPH; Supplementary Table 2). Next, clearance of CL27c was analyzed in C57BL/6J mice after either intra-venous or oral administration. […] Clearance of CL27c and CL27e after oral administration could not be determined due to their low bioavailability (Supplementary Table 3). Next, pharmacokinetics after inhalation was studied in C57BL/6J mice after delivering an aerosolized micro-suspension of CL27c. As shown in Table 1 and Supplementary Fig. 1b, CL27c dose-dependently reached the lungs and its metabolite CL27e was detectable after inhalation of the highest dose. […] Therefore, the inhaled prodrug promotes local effects but prevents systemic absorption of pharmacologically relevant amounts of the active compound.
Animals were fasted overnight and, the day after, they were treated for 30 min with aerosolized CL27c (2 mg/ml in 0.5 % tylaxopol/saline solution). […]

[2] = target: T1, PI3Kα (Homo sapiens, UniProt P42336); test: Kinome profiling assay (Nanosyn 250-kinase panel); format: biochemical
T1 construct: purchased Nanosyn Biology, Inc., Santa Clara, CA, USA
T1 sequence (P42336 whole entry, species assumed): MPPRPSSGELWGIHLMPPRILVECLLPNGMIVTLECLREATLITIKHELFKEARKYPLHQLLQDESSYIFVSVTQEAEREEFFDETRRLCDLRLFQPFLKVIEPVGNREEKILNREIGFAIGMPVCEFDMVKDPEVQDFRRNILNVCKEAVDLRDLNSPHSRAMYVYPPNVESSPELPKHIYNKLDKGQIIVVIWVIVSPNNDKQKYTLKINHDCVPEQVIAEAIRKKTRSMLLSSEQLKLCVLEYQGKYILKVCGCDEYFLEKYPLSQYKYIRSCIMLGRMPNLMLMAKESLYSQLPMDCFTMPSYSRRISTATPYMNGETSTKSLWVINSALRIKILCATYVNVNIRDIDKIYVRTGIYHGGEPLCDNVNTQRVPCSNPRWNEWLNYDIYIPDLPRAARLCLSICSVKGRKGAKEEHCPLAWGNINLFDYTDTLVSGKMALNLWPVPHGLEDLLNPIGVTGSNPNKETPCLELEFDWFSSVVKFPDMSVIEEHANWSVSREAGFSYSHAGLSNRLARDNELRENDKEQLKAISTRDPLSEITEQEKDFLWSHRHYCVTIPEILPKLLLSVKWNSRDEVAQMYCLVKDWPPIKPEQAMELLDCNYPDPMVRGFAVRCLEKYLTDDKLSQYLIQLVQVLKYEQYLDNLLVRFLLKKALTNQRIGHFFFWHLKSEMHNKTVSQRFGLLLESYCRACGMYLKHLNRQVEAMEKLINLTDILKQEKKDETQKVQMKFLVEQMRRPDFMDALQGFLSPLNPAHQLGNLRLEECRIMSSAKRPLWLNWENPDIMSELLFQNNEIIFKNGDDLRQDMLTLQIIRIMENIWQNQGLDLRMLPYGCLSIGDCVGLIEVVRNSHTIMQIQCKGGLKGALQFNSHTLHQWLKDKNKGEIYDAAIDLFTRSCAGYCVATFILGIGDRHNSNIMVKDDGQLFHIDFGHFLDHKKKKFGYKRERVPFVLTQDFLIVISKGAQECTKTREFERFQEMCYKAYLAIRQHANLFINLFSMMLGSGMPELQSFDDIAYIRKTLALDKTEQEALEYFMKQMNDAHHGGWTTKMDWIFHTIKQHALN
T1 sequence (P27986 whole entry partner, species assumed): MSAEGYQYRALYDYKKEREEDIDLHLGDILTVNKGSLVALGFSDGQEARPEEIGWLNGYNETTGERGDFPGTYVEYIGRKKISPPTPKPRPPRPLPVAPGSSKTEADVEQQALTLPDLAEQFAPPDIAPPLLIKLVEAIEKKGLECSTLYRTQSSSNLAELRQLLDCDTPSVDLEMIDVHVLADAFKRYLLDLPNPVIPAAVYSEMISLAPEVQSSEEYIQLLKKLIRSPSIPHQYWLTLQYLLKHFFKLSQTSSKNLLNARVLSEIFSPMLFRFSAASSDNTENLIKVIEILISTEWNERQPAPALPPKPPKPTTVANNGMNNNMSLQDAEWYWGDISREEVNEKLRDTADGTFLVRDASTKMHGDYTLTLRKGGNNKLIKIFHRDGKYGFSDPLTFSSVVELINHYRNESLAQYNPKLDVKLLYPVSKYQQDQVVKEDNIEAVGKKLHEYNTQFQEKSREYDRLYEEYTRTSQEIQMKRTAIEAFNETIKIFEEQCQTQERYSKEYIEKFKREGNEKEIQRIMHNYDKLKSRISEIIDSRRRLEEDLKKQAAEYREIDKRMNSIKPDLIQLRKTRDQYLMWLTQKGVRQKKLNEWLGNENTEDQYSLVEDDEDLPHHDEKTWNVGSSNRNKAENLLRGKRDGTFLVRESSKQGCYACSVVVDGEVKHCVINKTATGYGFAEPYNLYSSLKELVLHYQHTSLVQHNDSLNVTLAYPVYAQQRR
Description: Supplementary Figure 2: Kinase selectivity of CL27e
Kinase selectivity of the CL27c active metabolite, CL27e, was evaluated at 0.02 µM and 0.2 µM using the Nanosyn 250-kinase panel. Red color indicates selectivity for PI3Kα, on which CL27e […]
Results are expressed as mean percentage inhibition for each
(1 picture or pasted object on this page, not shown here)
Human lung fibroblast cell culture
Two separate human lung fibroblast cell lines isolated from IPF patients were used: LL97a derived from a person (ATCC, Manassas, USA) and DHLF-IPF (#CC-7231, Lonza, Switzerland). Control cell lines were CCD-16Lu, obtained from a person that died of astrocytoma –a disease unrelated to IPF - (ATCC) and NHLF (#CC-2512; Lonza). […]
Caliper based assay, the reaction was terminated by addition of EDTA buffer. Substrate and product were separated and quantified electrophoretically using the microfluidic-based and the assay plate was read on Caliper LabChip 3000 Drug Discovery System from Caliper Life Sciences (Walthan, MA, USA). ADP Glo was another method of detection used for some kinase assays where data was obtained by quantifying the intensity of luminescence. For ADP Glo based assay, the reaction was terminated by applying the Promega ADP Glo Kinase Assay kit and the assay plate was read on a LJL Biosystems Analyst HT. […]

SMILES	drop in glycemia 10 min after an insulin challenge [1] [% drop]	glycemia [1] [mg/dL]	inhibition of PI3Kα ([2]; high concentration (0.2 µM), 0.2 µM)	inhibition of PI3Kα ([2]; low concentration (0.02 µM)) [%]
COC(=O)c1cccc(Cn2cc(-c3cccc4c(=O)cc(N5CCOCC5)[nH]c34)nn2)c1 [CL27c]	17.45 ± 3.00	213.0 ± 5.6	–	–
O=C(O)c1cccc(Cn2cc(-c3cccc4c(=O)cc(N5CCOCC5)[nH]c34)nn2)c1 [CL27e]	–	–	> 80% and 81%	23
